What was measured:
Type in all cases: physicochemical
[1] = Dissolution tests of powder mixtures of FFA-NIC cocrystal with polymers in PBS pH 6.8 (sink); details: for FFA DPP: reference neat cocrystal in PBS pH 6.8; for incongruent indicator k(t) (molar FFA/NIC in solution): PBS pH 6.8, sink conditions
Procedure: (§1) Similarly, in vitro dissolution tests of the powder mixtures of 71.7 mg of the FFA-NIC cocrystals with an individual polymer or a combination in PBS pH 4.5 or PBS pH 6.8 were conducted in triplicate. The amount of a polymer used in the powder mixture was 80 mg of PVP-VA, 400 mg of PEG, or 80 mg of SLP, corresponding to their predissolved concentrations used in Section "Dissolution Tests of FFA, the Neat FFA-TP Cocrystal or FFA-NIC Cocrystal Powders in DDW in the Absence and Presence of a Predissolved Polymer or a Combination".
(§2) DPP was used to evaluate the dissolution profile of the test powders in comparison to a reference system, which is defined as,4 DPP=AUCC(t)-AUCCR(t)/AUCCR(t)×100% where AUCC(t) is the area under the curve (AUC) of a dissolution profile C(t) , indicating the amount of drug dissolved is maintained over the period of the dissolution time from 0 to t, and AUCCR(t) is the AUC of a reference dissolution profile CR(t) .

[2] = Dissolution tests of powders in DDW with predissolved polymer or combination (USP type II paddle); details: for incongruent indicator k(t) (molar FFA/NIC in solution): neat cocrystal
Procedure: In vitro dissolution tests were performed with a USP type II paddle apparatus (DT 126 light, Erweka GmbH, Germany) at 37 ± 0.5°C with a paddle speed of 50 rpm in 400 mL of DDW in the absence and presence of a predissolved polymer (i.e., 0.2 mg/mL of PVP-VA, 1 mg/mL of PEG, 0.2 mg/mL of SLP) or a combination of two polymers (i.e., 0.2 mg/mL PVP-VA + 1 mg/mL PEG, […]).
71.7 mg of FFA-NIC cocrystal powders with the equivalent of 50 mg FFA I powders were used in each of the dissolution tests. Samples of 1 ± 0.1 mL were withdrawn from the dissolution vessel at the predefined time points of 5, 10, 15, 30, 60, 120, 180 and 240 min. The supernatant of each of the samples was separated from the excess solids by centrifugation at 13,000 RPM for 1 min in an MSE Micro Centaur. HPLC was used to determine the concentrations of FFA and NIC in solution. Solid residues obtained from the experiments were dried at room temperature and analysed by PXRD. All experiments were repeated in triplicate.
For comparison, the above dissolution tests were also repeated using 50 mg of pure FFA I powders and 82.0 mg of FFA-TP cocrystal powders.
as §2
(§3) The solids were scanned by D2 phaser diffractometer (Bruker U.K. Limited, Coventry, UK) with […] radiation operating at voltage of 30 kV and current of 10 mA. The scanning angle ranged from 2°-40° of 2θ. The scanning time per step was 0.4 s. The scan step size was 0.02° of 2θ.

[3] = Dissolution tests of powder mixtures of FFA-NIC cocrystal with polymers in PBS pH 4.5 (non-sink); details: for incongruent indicator k(t) (molar FFA/NIC in solution): PBS pH 4.5, neat cocrystal; for FFA DPP: reference neat cocrystal in PBS pH 4.5
Procedure: as §1, with “[…],” for “The amount of a polymer used in the powder mixture was 80 mg of PVP-VA,”, “[…],” for “or 80 mg of SLP,”
The solid residues obtained from the experiments in PBS pH 4.5 were dried at room temperature and analysed by PXRD.
as §2, §3

[4] = DDW, combination of predissolved PVP-VA and PEG
[5] = DDW, no polymer, powder dissolution

- solid residues after dissolution ([1]; PBS pH 6.8, 37°C, after 4 h): no solid residue
- FFA DPP ([1]; PBS pH 6.8, powder mixture with PVP-VA (0.2 mg/mL)): 11%
- FFA DPP ([1]; PBS pH 6.8, powder mixture with PVP-VA (0.4 mg/mL)): 7%
- incongruent constant k(t) ([1]; PBS pH 6.8, powder mixture with PVP-VA, at 60 min): > 0.94
- FFA DPP ([1]; PBS pH 6.8, powder mixture with SLP (0.1 mg/mL) + PVP-VA (0.4 mg/mL)): 8%
- FFA DPP ([1]; PBS pH 6.8, powder mixture with SLP (0.2 mg/mL) + PVP-VA (0.2 mg/mL)): 6%
- FFA DPP ([1]; PBS pH 6.8, powder mixture with SLP (0.2 mg/mL) + PVP-VA (0.4 mg/mL)): 9%
- FFA DPP ([1]; PBS pH 6.8, powder mixture with SLP (0.2 mg/mL)): -0.1%
- incongruent indicator k(t) (molar FFA/NIC in solution) ([1]; at 5 min): 0.75
- incongruent indicator k(t) (molar FFA/NIC in solution) ([1]; at the end of dissolution): 0.94
- solid residues after dissolution tests (PXRD) ([2]; DDW in the absence or presence of predissolved polymers): FFA III
- FFA concentration at 240 min [2, 4]: 11.44 µg/mL
- maximum FFA concentration [2, 4]: 14.28 µg/mL
- time to generate supersaturated state of FFA concentration [2, 4]: ≤ 5 min
- solid residues after dissolution tests (PXRD) ([2]; DDW, combinations of predissolved PVP-VA and SLP at various concentrations except SLP (0.2 mg/mL) + PVP-VA (0.8 mg/mL)): FFA III alone
- incongruent indicator k(t) (molar FFA/NIC in solution) ([2]; DDW, at 5 min): 0.06
- incongruent indicator k(t) (molar FFA/NIC in solution) ([2]; DDW, at 60 min): 0.08
- FFA concentration reached within 60 min [2, 5]: 10.23 µg/mL
- FFA concentration, constant level after 60 min [2, 5]: 10.78 µg/mL
- time for FFA concentration to reach aqueous equilibrium solubility ([2]; DDW, predissolved 0.2 mg/mL PVP-VA): ≤ 15 min
- maximum FFA concentration ([2]; DDW, predissolved 0.2 mg/mL PVP-VA, at 60 min): 12.93 µg/mL
- FFA DPP (dissolution performance parameter) ([2]; DDW, predissolved PEG (1 mg/mL), 0-4 h, reference same powder in DDW): -7%
- FFA DPP (dissolution performance parameter) ([2]; DDW, predissolved PVP-VA (0.2 mg/mL), 0-4 h, reference same powder in DDW): 19%
- NIC release from cocrystal powders ([2]; DDW, predissolved PVP-VA or its combination with PEG or SLP): released completely
- FFA concentration in solution after 4 h ([2]; DDW, predissolved SLP (0.2 mg/mL)): 26.18 µg/mL
- FFA DPP (dissolution performance parameter) ([2]; DDW, predissolved SLP (0.2 mg/mL) + PVP-VA (0.1 mg/mL), reference DDW): 112%
- FFA DPP (dissolution performance parameter) ([2]; DDW, predissolved SLP (0.2 mg/mL) + PVP-VA (0.2 mg/mL), 0-4 h, reference same powder in DDW): 160%
- FFA DPP (dissolution performance parameter) ([2]; DDW, predissolved SLP (0.2 mg/mL) + PVP-VA (0.3 mg/mL), reference DDW): 296%
- FFA DPP (dissolution performance parameter) ([2]; DDW, predissolved SLP (0.2 mg/mL) + PVP-VA (0.4 mg/mL), reference DDW): 345%
- FFA DPP (dissolution performance parameter) ([2]; DDW, predissolved SLP (0.2 mg/mL) + PVP-VA (0.8 mg/mL), reference DDW): 310%
- FFA DPP (dissolution performance parameter) ([2]; DDW, predissolved SLP (0.2 mg/mL), 0-4 h, reference same powder in DDW): 67%
- NIC release from cocrystal powders ([2]; DDW, single polymer of PEG or SLP): not complete
- solid residues after dissolution tests (PXRD) ([2]; SLP predissolved DDW): both FFA III and FFA-NIC cocrystal
- incongruent indicator k(t) (molar FFA/NIC in solution) ([3]; at 5 min): 0.03
- incongruent indicator k(t) (molar FFA/NIC in solution) ([3]; at 60 min): 0.07
- FFA DPP ([3]; PBS pH 4.5, powder mixture with PEG (1 mg/mL) + PVP-VA (0.2 mg/mL)): 36%
- FFA DPP ([3]; PBS pH 4.5, powder mixture with PEG (1 mg/mL)): 11%
- FFA concentration at the end of the test ([3]; PBS pH 4.5, powder mixture with PVP-VA): 17.38 µg/mL
- FFA DPP ([3]; PBS pH 4.5, powder mixture with PVP-VA (0.2 mg/mL)): 92%
- maximum supersaturated FFA concentration ([3]; PBS pH 4.5, powder mixture with PVP-VA, at 60 min): 19.65 µg/mL
- FFA DPP ([3]; PBS pH 4.5, powder mixture with SLP (0.1 mg/mL) + PVP-VA (0.4 mg/mL)): 150%
- FFA DPP ([3]; PBS pH 4.5, powder mixture with SLP (0.2 mg/mL) + PVP-VA (0.2 mg/mL)): 159%
- FFA DPP ([3]; PBS pH 4.5, powder mixture with SLP (0.2 mg/mL) + PVP-VA (0.4 mg/mL)): 179%
- FFA DPP ([3]; PBS pH 4.5, powder mixture with SLP (0.2 mg/mL) + PVP-VA (0.8 mg/mL)): 204%
- FFA DPP ([3]; PBS pH 4.5, powder mixture with SLP (0.2 mg/mL)): 2%
- solid residues after dissolution tests (PXRD) ([3]; all dissolution tests in PBS pH 4.5): FFA III solids were crystallised
SMILES: NC(=O)c1cccnc1.O=C(O)c1ccccc1Nc1cccc(C(F)(F)F)c1 [FFA-NIC cocrystal]
- solid residues after dissolution tests (PXRD) ([2]; DDW, predissolved SLP (0.2 mg/mL) and PVP-VA (0.8 mg/mL)): mixtures of FFA III and FFA-NIC cocrystal
- solid residues after dissolution tests (PXRD) ([3]; PBS pH 4.5, groups SLP (0.1 mg/mL) + PVP-VA (0.4 mg/mL) and SLP (0.2 mg/mL) + PVP-VA (0.8 mg/mL)): FFA-NIC cocrystals were also found in the solid residues
